# Measurements reported in the OligoGym collection.
# Bases are written 5' to 3'; sugars and linkages follow in the same order, as letters with counts (s phosphorothioate, o phosphodiester; PS: all linkages phosphorothioate). C may stand for cytosine or 5-methylcytosine; the collection does not tell. l = locked nucleic acid (LNA); d = 2'-deoxy (DNA)
# Biological target: HIF1A
# Assay: HeLa, 100 nM transfected, 24 h, mean of 3
# Details: ASO
row,Sequence,caspase activation (% of PBS control)
1,"TGGCAAGCATCCTGTA (sugars lldllddddddldddl, PS)",385
2,"GTTACTGCCTTCTTAC (sugars ldldddddddddldll, PS)",112
3,"GTTACTGCCTTCTTAC (sugars l5 d6 l1 d3 l1, PS)",454
4,"GTTACTGCCTTCTTAC (sugars lddldddddddldddl, PS)",88.6
5,"GTTACTGCCTTCT (sugars l1 d2 l1 d8 l1, PS)",110
6,"GTTACTGCCTTCTTAC (sugars l2 d9 l3 d1 l1, PS)",333
7,"TTACTGCCTTCTT (sugars l2 d8 l1 d1 l1, PS)",198
8,"TGGCAAGCATCCTGTA (sugars llddlddddddllldl, PS)",397
9,"TGGCAAGCATCCTGTA (sugars l1 d1 l1 d9 l4, PS)",379
10,"GTTACTGCCTTCTTAC (sugars l1 d12 l3, PS)",100
11,"ACTGCCTTCTTAC (sugars l1 d2 l1 d7 l2, PS)",112
12,"CAAGCATCCTGTA (sugars l2 d10 l1, PS)",142
13,"TACTGCCTTCTTA (sugars l1 d10 l2, PS)",130
14,"GTTACTGCCTTCTTAC (sugars lldlddddddddlddl, PS)",135
15,"TGGCAAGCATCCT (sugars l1 d10 l2, PS)",253
16,"TGGCAAGCATCCTGTA (sugars ldldlddddddddlll, PS)",277
17,"GTTACTGCCTTCTTAC (sugars l4 d10 l2, PS)",190
18,"TGGCAAGCATCCT (sugars l2 d8 l3, PS)",315
19,"TGGCAAGCATCCTGTA (sugars l1 d3 l1 d8 l3, PS)",172
20,"TGGCAAGCATCCTGTA (sugars lddllddddddddldl, PS)",397
21,"GTTACTGCCTTCTTAC (sugars llddldddddddldll, PS)",218
22,"GTTACTGCCTTCT (sugars l1 d10 l2, PS)",127
23,"TGGCAAGCATCCTGTA (sugars ldldlddddddlldll, PS)",263
24,"TGGCAAGCATCCT (sugars l1 d9 l3, PS)",330
25,"TGGCAAGCATCCTGTA (sugars l3 d8 l1 d2 l2, PS)",297
26,"TGGCAAGCATCCTGTA (sugars l1 d13 l2, PS)",170

row,Sequence,caspase activation (% of PBS control)
1,"GTTACTGCCTTCT (sugars l2 d1 l1 d6 l3, PS)",183
2,"TTACTGCCTTCTT (sugars lldlddddddldl, PS)",222
3,"ACTGCCTTCTTAC (sugars l1 d1 l1 d7 l3, PS)",257
4,"GTTACTGCCTTCTTAC (sugars ldldldddddddlldl, PS)",280
5,"GTTACTGCCTTCTTAC (sugars l2 d11 l3, PS)",122
6,"CAAGCATCCTGTA (sugars l2 d8 l3, PS)",250
7,"GTTACTGCCTTCTTAC (sugars llldlddddddllddl, PS)",308
8,"GTTACTGCCTTCTTAC (sugars l4 d8 l1 d1 l2, PS)",218
9,"TGGCAAGCATCCTGTA (sugars ldlldddddddllldl, PS)",438
10,"GGCAAGCATCCTG (sugars l4 d8 l1, PS)",604
11,"TGGCAAGCATCCTGTA (sugars l1 d1 l2 d9 l3, PS)",479
12,"TTACTGCCTTCTT (sugars l1 d2 l1 d6 l3, PS)",131
13,"GTTACTGCCTTCTTAC (sugars l1 d1 l2 d7 l5, PS)",361
14,"GGCAAGCATCCTG (sugars l3 d7 l3, PS)",632
15,"GTTACTGCCTTCTTAC (sugars lldllddddddldldl, PS)",294
16,"TGGCAAGCATCCTGTA (sugars llddlddddddldldl, PS)",390
17,"TGGCAAGCATCCTGTA (sugars ldddlddddddlldll, PS)",285
18,"GTTACTGCCTTCTTAC (sugars ldddlddddddlddll, PS)",133
19,"ACTGCCTTCTTAC (sugars l2 d10 l1, PS)",171
20,"CAAGCATCCTGTA (sugars l1 d1 l1 d9 l1, PS)",121
21,"TGGCAAGCATCCTGTA (sugars ldddlddddddddldl, PS)",139
22,"TGGCAAGCATCCTGTA (sugars lddddddddddldldl, PS)",228
23,"CAAGCATCCTGTA (sugars l1 d1 l1 d7 l3, PS)",198
24,"TTACTGCCTTCTT (sugars l4 d7 l2, PS)",337
25,"TGGCAAGCATCCTGTA (sugars ldllldddddddlldl, PS)",440
26,"GTTACTGCCTTCTTAC (sugars l5 d6 l1 d2 l2, PS)",442

row,Sequence,caspase activation (% of PBS control)
1,"GTTACTGCCTTCTTAC (sugars l1 d1 l1 d9 l4, PS)",147
2,"GCAAGCATCCTGT (sugars l4 d7 l2, PS)",352
3,"TGGCAAGCATCCTGTA (sugars l2 d1 l2 d8 l3, PS)",407
4,"GTTACTGCCTTCTTAC (sugars l4 d11 l1, PS)",159
5,"GTTACTGCCTTCTTAC (sugars ldddlddddddddldl, PS)",159
6,"GGCAAGCATCCTG (sugars l1 d1 l2 d6 l3, PS)",495
7,"TGGCAAGCATCCTGTA (sugars l2 d9 l1 d2 l2, PS)",424
8,"ACTGCCTTCTTAC (sugars l2 d1 l1 d7 l2, PS)",162
9,"TGGCAAGCATCCTGTA (sugars l1 d1 l1 d10 l3, PS)",188
10,"GTTACTGCCTTCTTAC (sugars lddldddddddlldll, PS)",151
11,"GCAAGCATCCTGT (sugars l2 d8 l1 d1 l1, PS)",281
12,"GTTACTGCCTTCT (sugars l4 d6 l1 d1 l1, PS)",221
13,"TGGCAAGCATCCTGTA (sugars llldldddddddlddl, PS)",341
14,"TGGCAAGCATCCTGTA (sugars lldllddddddldldl, PS)",483
15,"TGGCAAGCATCCTGTA (sugars ldldlddddddldldl, PS)",175
16,"TGGCAAGCATCCTGTA (sugars lddldddddddlddll, PS)",271
17,"GTTACTGCCTTCTTAC (sugars l1 d2 l1 d11 l1, PS)",91.7
18,"TTACTGCCTTCTT (sugars ldllddddddldl, PS)",181
19,"TGGCAAGCATCCTGTA (sugars l2 d10 l1 d2 l1, PS)",377
20,"GTTACTGCCTTCT (sugars l1 d1 l1 d7 l3, PS)",170
21,"TGGCAAGCATCCTGTA (sugars l5 d6 l1 d2 l2, PS)",399
22,"GTTACTGCCTTCTTAC (sugars l2 d1 l1 d7 l5, PS)",335
23,"TTACTGCCTTCTT (sugars l1 d11 l1, PS)",82.9
24,"TGGCAAGCATCCTGTA (sugars llddlddddddlldll, PS)",446
25,"GTTACTGCCTTCTTAC (sugars l2 d2 l1 d8 l3, PS)",237
26,"TACTGCCTTCTTA (sugars l2 d8 l1 d1 l1, PS)",223

row,Sequence,caspase activation (% of PBS control)
1,"TGGCAAGCATCCTGTA (sugars l3 d10 l1 d1 l1, PS)",251
2,"TGGCAAGCATCCTGTA (sugars l1 d3 l1 d7 l4, PS)",235
3,"GTTACTGCCTTCTTAC (sugars ldllddddddddldll, PS)",181
4,"TACTGCCTTCTTA (sugars l1 d9 l3, PS)",158
5,"TGGCAAGCATCCTGTA (sugars l2 d10 l4, PS)",346
6,"GTTACTGCCTTCTTAC (sugars l1 d1 l3 d9 l2, PS)",292
7,"GGCAAGCATCCTG (sugars l1 d9 l1 d1 l1, PS)",390
8,"GTTACTGCCTTCTTAC (sugars ldddlddddddldlll, PS)",162
9,"GTTACTGCCTTCTTAC (sugars l2 d9 l2 d1 l2, PS)",223
10,"TGGCAAGCATCCTGTA (sugars ldldlddddddldlll, PS)",309
11,"ACTGCCTTCTTAC (sugars l2 d1 l1 d6 l3, PS)",166
12,"GTTACTGCCTTCTTAC (sugars llddlddddddldlll, PS)",220
13,"TGGCAAGCATCCTGTA (sugars l1 d3 l1 d6 l5, PS)",396
14,"GCAAGCATCCTGT (sugars ldllddddddldl, PS)",176
15,"GTTACTGCCTTCT (sugars l1 d1 l2 d6 l3, PS)",239
16,"TGGCAAGCATCCT (sugars l2 d1 l1 d7 l2, PS)",361
17,"TGGCAAGCATCCTGTA (sugars l1 d1 l3 d10 l1, PS)",595
18,"TGGCAAGCATCCTGTA (sugars l1 d1 l3 d6 l5, PS)",482
19,"TGGCAAGCATCCTGTA (sugars l3 d8 l3 d1 l1, PS)",449
20,"GTTACTGCCTTCTTAC (sugars l5 d7 l2 d1 l1, PS)",515
21,"TGGCAAGCATCCTGTA (sugars l1 d1 l1 d8 l5, PS)",417
22,"GTTACTGCCTTCTTAC (sugars l2 d9 l2 d2 l1, PS)",199
23,"TGGCAAGCATCCTGTA (sugars ldldldddddddllll, PS)",309
